# Paper PMC4523496 (Molecular psychiatry, 2015)
# Assays:
# [1] = tested on: IL-1β mRNA in VTA, NAc, vmPFC; assay: IL-1β mRNA in brain micro-punches after systemic drug; assay type: in vivo, rat; conditions: (+)-naloxone […] s.c. twice; 30 min and 2 h after cocaine 10 mg/kg
# [2] = tested on: extracellular dopamine in the NAc; assay: In vivo microdialysis of NAc shell dopamine; design: species or system rat; conditions: for effect on basal NAc dopamine levels: antagonist alone; for effect on intra-VTA neurotensin-induced elevation of NAc dopamine: control for non-specific disruption of neuronal responsiveness; for extracellular NAc dopamine, compound alone: cocaine 10 mg/kg systemic, neurotensin 10 nMol or LPS 10 ng intra-VTA; for increase of NAc dopamine concentrations: intra-VTA LPS vs systemic cocaine
# [3] = tested on: cocaine conditioned place preference; assay: Conditioned place preference; assay type: in vivo, rat; conditions: tested drug-free; cocaine 10 mg/kg i.p.
# [4] = assay type: in vivo, rat; conditions: pretreatment […] s.c. twice; cocaine 10 mg/kg i.p.; hippocampus
# [5] = tested on: isolated neonatal microglial cells; assay: IL-1β mRNA expression in isolated neonatal microglial cell culture; conditions: neonatal microglia; (+)-naloxone 1, 10, 100 µM co-treatment
# [6] = tested on: cocaine self-administration; assay: Rat self-administration; assay type: in vivo; conditions: pre-session (+)-naltrexone s.c.
# MD-2 [7] = molecular target: T1, MD-2 (Homo sapiens, UniProt Q9Y6Y9); assay: Bis-ANS displacement assay; assay type: binding
# T1 sequence (Q9Y6Y9 19-160): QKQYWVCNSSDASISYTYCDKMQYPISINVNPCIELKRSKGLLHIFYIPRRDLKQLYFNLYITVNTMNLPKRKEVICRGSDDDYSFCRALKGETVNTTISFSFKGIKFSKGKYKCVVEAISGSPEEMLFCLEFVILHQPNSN
# MD-2 [8] = molecular target: T1, MD-2; assay: Biophysical ELISA binding assays
compound,measurement,setting,value
C=CCN1CC[C@]23c4c5ccc(O)c4O[C@H]2C(=O)CC[C@]3(O)[C@H]1C5 [(+)-Naloxone],effect on cocaine-induced increases of intra-VTA IL1β mRNA,[1],blocked
same,effect on basal NAc dopamine levels,[2],did not influence basal dopamine levels
same,effect on intra-VTA neurotensin-induced elevation of NAc dopamine,[2],unaltered
same,"conditioned place preference, compound alone",[3],produced no appetitive or aversive CPP
same,effect on brain cocaine concentrations,[4],not altered
same,effect on cocaine-induced upregulation of IL-1β mRNA,[5],blocked
O=C1CC[C@]2(O)[C@@H]3Cc4ccc(O)c5c4[C@]2(CCN3CC2CC2)[C@@H]1O5 [(+)-naltrexone],effect on food-maintained responding,[6],failed to suppress responding to food
same,effect on responding for cocaine (self-administration),[6]; fixed-ratio dose-response,suppressed responding for cocaine at the peak cocaine doses
COC(=O)[C@H]1[C@@H](OC(=O)c2ccccc2)C[C@@H]2CC[C@H]1N2C [Cocaine],Ki,MD-2 [7],23.9 ± 5.9 µM
same,binding to human MD-2 (ELISA),MD-2 [8]; aptamer-immobilized cocaine,bound to human MD-2 in a concentration-dependent manner
same,"extracellular NAc dopamine, compound alone",[2],robust increases in extracellular NAc dopamine
same,increase of NAc dopamine concentrations,[2],300%
same,"conditioned place preference, compound alone",[3],produces place preference
CN(C)c1ccc(O)c2c1C[C@H]1C[C@H]3[C@H](N(C)C)C(O)=C(C(N)=O)C(=O)[C@@]3(O)C(O)=C1C2=O [minocycline],"conditioned place preference, compound alone",[3],neither water nor minocycline altered place preference
IL1ra: IL-1 receptor antagonist,effect on basal NAc dopamine levels,[2],did not alter basal DA levels in the NAc
same,effect on intra-VTA neurotensin-induced elevation of NAc dopamine,[2],did not alter neurotensin-induced dopamine elevations in the NAc
lipopolysaccharide [LPS],competition with cocaine for binding to MD-2 (ELISA),MD-2 [8]; varying concentrations of LPS added,displaced cocaine binding to MD-2
same,"extracellular NAc dopamine, compound alone",[2],increased
same,increase of NAc dopamine concentrations,[2],< 200%
neurotensin,"extracellular NAc dopamine, compound alone",[2],induced increased NAc dopamine
